Experimental data as given in patent US20210107874A1, “PHARMACEUTICAL FORMULATION OF CROTONYLAMINOPYRIDINE SALT” (priority 2017, published 2021).
Where “and” joins values, the source holds several entries; their conditions need not be identical. Equal values may be shown once. Read-outs that look alike come from different tables or passages of the source.

Columns and labels:
[1] = Solubility of synthesized tartrate salt and free base of compound 4; format: physicochemical; conditions: free base; read-out: solubility
Description: The free base of compound 4 has a solubility of 0.8 mg/ml

[2] = PK studies of formulations, plasma by HPLC-MS/MS; format: in vivo; conditions: Cattle
Description: The following formulations were prepared and administered to animals. Blood samples were collected at pre-defined time points and the amount of compound present in plasma at the time of sampling was determined by HPLC-MS/MS. Pharmacokinetic parameters were then calculated: Cmax, Tmax, Tlast, AUC. [table]

[3] = Form O62.5 (FormO type: L-tartaric acid, NaOH to pH 4.4, water), SC, 1.25 mg/kg

## CCOc1cc(NCCNC(=O)/C=C/C(F)(F)F)ccn1 [Compound 4, (E)-N-[2-[(2-ethoxy-4-pyridyl)amino]ethyl]-4,4,4-trifluoro-but-2-enamide]
[1]
  solubility: 800 µg/mL
[2]; Form A50 (NMP, propylene glycol, water), SC, 1.25 mg/kg
  Tlast: 6.5 h
[2]; Form B62.5 (dimethyl acetamide, propylene glycol, water), SC, 1.25 mg/kg
  Tlast: 5.33 h
[2]; [3]
  AUC: 372 ng·h/mL
  Cmax: 428 ng/mL
  Tlast: 4 h and 3 h
  Tmax: 18.6 min
[2]; FormC62.5 (propylene glycol, ethanol, Transcutol P), SC, 1.25 mg/kg
  Tlast: 10.7 h
[2]; FormD62.5 (PEG 300, ethanol, Transcutol P), SC, 1.25 mg/kg
  Tlast: 4 h
[2]; FormE62.5 (polyethylene glycol 300, ethyl alcohol 96%, water), SC, 1.25 mg/kg
  Tlast: 5 h
[2]; FormF62.5 (polyethylene glycol, 1-octanol, 2-pyrrolidone), SC, 1.25 mg/kg
  Tlast: 8 h
[2]; FormG62.5 (benzyl alcohol, ethyl alcohol 96%, polyethylene glycol 300), SC, 1.25 mg/kg
  Tlast: 5.33 h
[2]; FormH62.5 (DMA, DMSO, 2-pyrrolidone), SC, 1.25 mg/kg
  Tlast: 4 h
[2]; FormJ62.5 (DMSO, 2-pyrrolidone, ethyl lactate), SC, 1.25 mg/kg
  Tlast: 4 h
[2]; FormK62.5 (2-pyrrolidone, Transcutol P, ethyl lactate), SC, 1.25 mg/kg
  Tlast: 4 h
[2]; FormL50 (DMA, propylene glycol, water), SC, 1.25 mg/kg
  Tlast: 4 h
[2]; FormM62.5 (L-tartaric acid, sodium hydroxide up to pH 4.6, water), SC, 1.25 mg/kg
  Tlast: 3.33 h
[2]; FormO60 (FormO type: L-tartaric acid, NaOH to pH 4.4, water), SC, 1 mg/kg
  Tlast: 2.67 h
[2]; FormP62.5 (L-tartaric acid, 2-pyrrolidone, NaOH, water), SC, 1.25 mg/kg
  Tlast: 6.67 h
[2]; FormQ62.5 (L-tartaric acid, sodium carboxymethyl cellulose, NaOH up to pH 4.3, water), SC, 1.25 mg/kg
  Tlast: 4 h
[2]; FormR50 (L-tartaric acid, 2-pyrrolidone, NaOH, water), SC, 1 mg/kg
  Tlast: 6.67 h
[2]; FormS50 (L-tartaric acid, sodium carboxymethyl cellulose, 2-pyrrolidone, NaOH, water), SC, 1 mg/kg
  Tlast: 8.67 h
[2]; FormT50 (DL-Lactic acid, hydrochloric acid up to pH 4.4, water), SC, 1 mg/kg
  Tlast: 3.67 h
[2]; bovine, plasma, sc, 1 mg/kg, FormR50 (L-tartaric acid, 2-pyrrolidone, NaOH, water), 1 mg/kg, read-out: AUC
  AUC: 248 ng·h/mL
[2]; bovine, plasma, sc, 1 mg/kg, FormR50 (L-tartaric acid, 2-pyrrolidone, NaOH, water), 1 mg/kg, read-out: Cmax
  Cmax: 59.4 ng/mL
[2]; bovine, plasma, sc, 1 mg/kg, FormR50 (L-tartaric acid, 2-pyrrolidone, NaOH, water), 1 mg/kg, read-out: Tmax
  Tmax: 60 min
[2]; bovine, plasma, sc, 1 mg/kg, FormS50 (L-tartaric acid, sodium carboxymethyl cellulose, 2-pyrrolidone, NaOH, water), 1 mg/kg, read-out: AUC
  AUC: 339 ng·h/mL
[2]; bovine, plasma, sc, 1 mg/kg, FormS50 (L-tartaric acid, sodium carboxymethyl cellulose, 2-pyrrolidone, NaOH, water), 1 mg/kg, read-out: Cmax
  Cmax: 69.3 ng/mL
[2]; bovine, plasma, sc, 1 mg/kg, FormS50 (L-tartaric acid, sodium carboxymethyl cellulose, 2-pyrrolidone, NaOH, water), 1 mg/kg, read-out: Tmax
  Tmax: 79.8 min
[2]; bovine, plasma, sc, 1 mg/kg, pH 4.4, FormO60 (FormO type: L-tartaric acid, NaOH to pH 4.4, water), 1 mg/kg, read-out: AUC
  AUC: 302 ng·h/mL
[2]; bovine, plasma, sc, 1 mg/kg, pH 4.4, FormO60 (FormO type: L-tartaric acid, NaOH to pH 4.4, water), 1 mg/kg, read-out: Cmax
  Cmax: 374 ng/mL
[2]; bovine, plasma, sc, 1 mg/kg, pH 4.4, FormO60 (FormO type: L-tartaric acid, NaOH to pH 4.4, water), 1 mg/kg, read-out: Tmax
  Tmax: 15 min
[2]; bovine, plasma, sc, 1 mg/kg, pH 4.4, FormT50 (DL-Lactic acid, hydrochloric acid up to pH 4.4, water), 1 mg/kg, read-out: AUC
  AUC: 293 ng·h/mL
[2]; bovine, plasma, sc, 1 mg/kg, pH 4.4, FormT50 (DL-Lactic acid, hydrochloric acid up to pH 4.4, water), 1 mg/kg, read-out: Cmax
  Cmax: 281 ng/mL
[2]; bovine, plasma, sc, 1 mg/kg, pH 4.4, FormT50 (DL-Lactic acid, hydrochloric acid up to pH 4.4, water), 1 mg/kg, read-out: Tmax
  Tmax: 25.2 min
[2]; bovine, plasma, sc, 1.25 mg/kg, Form A50 (NMP, propylene glycol, water), 1.25 mg/kg, read-out: AUC
  AUC: 204 ng·h/mL
[2]; bovine, plasma, sc, 1.25 mg/kg, Form A50 (NMP, propylene glycol, water), 1.25 mg/kg, read-out: Cmax
  Cmax: 127 ng/mL
[2]; bovine, plasma, sc, 1.25 mg/kg, Form A50 (NMP, propylene glycol, water), 1.25 mg/kg, read-out: Tmax
  Tmax: 26.4 min
[2]; bovine, plasma, sc, 1.25 mg/kg, Form B62.5 (dimethyl acetamide, propylene glycol, water), 1.25 mg/kg, read-out: AUC
  AUC: 98.2 ng·h/mL
[2]; bovine, plasma, sc, 1.25 mg/kg, Form B62.5 (dimethyl acetamide, propylene glycol, water), 1.25 mg/kg, read-out: Cmax
  Cmax: 37.4 ng/mL
[2]; bovine, plasma, sc, 1.25 mg/kg, Form B62.5 (dimethyl acetamide, propylene glycol, water), 1.25 mg/kg, read-out: Tmax
  Tmax: 30 min
[2]; bovine, plasma, sc, 1.25 mg/kg, FormC62.5 (propylene glycol, ethanol, Transcutol P), 1.25 mg/kg, read-out: AUC
  AUC: 130 ng·h/mL
[2]; bovine, plasma, sc, 1.25 mg/kg, FormC62.5 (propylene glycol, ethanol, Transcutol P), 1.25 mg/kg, read-out: Cmax
  Cmax: 46.4 ng/mL
[2]; bovine, plasma, sc, 1.25 mg/kg, FormC62.5 (propylene glycol, ethanol, Transcutol P), 1.25 mg/kg, read-out: Tmax
  Tmax: 39.6 min
[2]; bovine, plasma, sc, 1.25 mg/kg, FormD62.5 (PEG 300, ethanol, Transcutol P), 1.25 mg/kg, read-out: AUC
  AUC: 63.2 ng·h/mL
[2]; bovine, plasma, sc, 1.25 mg/kg, FormD62.5 (PEG 300, ethanol, Transcutol P), 1.25 mg/kg, read-out: Cmax
  Cmax: 25.4 ng/mL
[2]; bovine, plasma, sc, 1.25 mg/kg, FormD62.5 (PEG 300, ethanol, Transcutol P), 1.25 mg/kg, read-out: Tmax
  Tmax: 55.2 min
[2]; bovine, plasma, sc, 1.25 mg/kg, FormE62.5 (polyethylene glycol 300, ethyl alcohol 96%, water), 1.25 mg/kg, read-out: AUC
  AUC: 76.4 ng·h/mL
[2]; bovine, plasma, sc, 1.25 mg/kg, FormE62.5 (polyethylene glycol 300, ethyl alcohol 96%, water), 1.25 mg/kg, read-out: Cmax
  Cmax: 45.7 ng/mL
[2]; bovine, plasma, sc, 1.25 mg/kg, FormE62.5 (polyethylene glycol 300, ethyl alcohol 96%, water), 1.25 mg/kg, read-out: Tmax
  Tmax: 25.2 min
[2]; bovine, plasma, sc, 1.25 mg/kg, FormF62.5 (polyethylene glycol, 1-octanol, 2-pyrrolidone), 1.25 mg/kg, read-out: AUC
  AUC: 78.5 ng·h/mL
[2]; bovine, plasma, sc, 1.25 mg/kg, FormF62.5 (polyethylene glycol, 1-octanol, 2-pyrrolidone), 1.25 mg/kg, read-out: Cmax
  Cmax: 15.2 ng/mL
[2]; bovine, plasma, sc, 1.25 mg/kg, FormF62.5 (polyethylene glycol, 1-octanol, 2-pyrrolidone), 1.25 mg/kg, read-out: Tmax
  Tmax: 37.8 min
[2]; bovine, plasma, sc, 1.25 mg/kg, FormG62.5 (benzyl alcohol, ethyl alcohol 96%, polyethylene glycol 300), 1.25 mg/kg, read-out: AUC
  AUC: 44.8 ng·h/mL
[2]; bovine, plasma, sc, 1.25 mg/kg, FormG62.5 (benzyl alcohol, ethyl alcohol 96%, polyethylene glycol 300), 1.25 mg/kg, read-out: Cmax
  Cmax: 12.5 ng/mL
[2]; bovine, plasma, sc, 1.25 mg/kg, FormG62.5 (benzyl alcohol, ethyl alcohol 96%, polyethylene glycol 300), 1.25 mg/kg, read-out: Tmax
  Tmax: 140 min
[2]; bovine, plasma, sc, 1.25 mg/kg, FormH62.5 (DMA, DMSO, 2-pyrrolidone), 1.25 mg/kg, read-out: AUC
  AUC: 88.2 ng·h/mL
[2]; bovine, plasma, sc, 1.25 mg/kg, FormH62.5 (DMA, DMSO, 2-pyrrolidone), 1.25 mg/kg, read-out: Cmax
  Cmax: 42.1 ng/mL
[2]; bovine, plasma, sc, 1.25 mg/kg, FormH62.5 (DMA, DMSO, 2-pyrrolidone), 1.25 mg/kg, read-out: Tmax
  Tmax: 40.2 min
[2]; bovine, plasma, sc, 1.25 mg/kg, FormK62.5 (2-pyrrolidone, Transcutol P, ethyl lactate), 1.25 mg/kg, read-out: AUC
  AUC: 86 ng·h/mL
[2]; bovine, plasma, sc, 1.25 mg/kg, FormK62.5 (2-pyrrolidone, Transcutol P, ethyl lactate), 1.25 mg/kg, read-out: Cmax
  Cmax: 29.9 ng/mL
[2]; bovine, plasma, sc, 1.25 mg/kg, FormK62.5 (2-pyrrolidone, Transcutol P, ethyl lactate), 1.25 mg/kg, read-out: Tmax
  Tmax: 49.8 min
[2]; bovine, plasma, sc, 1.25 mg/kg, FormL50 (DMA, propylene glycol, water), 1.25 mg/kg, read-out: AUC
  AUC: 59.8 ng·h/mL
[2]; bovine, plasma, sc, 1.25 mg/kg, FormL50 (DMA, propylene glycol, water), 1.25 mg/kg, read-out: Cmax
  Cmax: 28.1 ng/mL
[2]; bovine, plasma, sc, 1.25 mg/kg, FormL50 (DMA, propylene glycol, water), 1.25 mg/kg, read-out: Tmax
  Tmax: 40.2 min
[2]; bovine, plasma, sc, 1.25 mg/kg, FormP62.5 (L-tartaric acid, 2-pyrrolidone, NaOH, water), 1.25 mg/kg, read-out: AUC
  AUC: 322 ng·h/mL
[2]; bovine, plasma, sc, 1.25 mg/kg, FormP62.5 (L-tartaric acid, 2-pyrrolidone, NaOH, water), 1.25 mg/kg, read-out: Cmax
  Cmax: 94.2 ng/mL
[2]; bovine, plasma, sc, 1.25 mg/kg, FormP62.5 (L-tartaric acid, 2-pyrrolidone, NaOH, water), 1.25 mg/kg, read-out: Tmax
  Tmax: 49.8 min
[2]; bovine, plasma, sc, 1.25 mg/kg, pH 4.3, FormQ62.5 (L-tartaric acid, sodium carboxymethyl cellulose, NaOH up to pH 4.3, water), 1.25 mg/kg, read-out: AUC
  AUC: 356 ng·h/mL
[2]; bovine, plasma, sc, 1.25 mg/kg, pH 4.3, FormQ62.5 (L-tartaric acid, sodium carboxymethyl cellulose, NaOH up to pH 4.3, water), 1.25 mg/kg, read-out: Cmax
  Cmax: 297 ng/mL
[2]; bovine, plasma, sc, 1.25 mg/kg, pH 4.3, FormQ62.5 (L-tartaric acid, sodium carboxymethyl cellulose, NaOH up to pH 4.3, water), 1.25 mg/kg, read-out: Tmax
  Tmax: 34.8 min
[2]; bovine, plasma, sc, 1.25 mg/kg, pH 4.4, Form O62.5 (FormO type: L-tartaric acid, NaOH to pH 4.4, water), 1.25 mg/kg, read-out: AUC
  AUC: 358 ng·h/mL
[2]; bovine, plasma, sc, 1.25 mg/kg, pH 4.4, Form O62.5 (FormO type: L-tartaric acid, NaOH to pH 4.4, water), 1.25 mg/kg, read-out: Cmax
  Cmax: 300 ng/mL
[2]; bovine, plasma, sc, 1.25 mg/kg, pH 4.4, Form O62.5 (FormO type: L-tartaric acid, NaOH to pH 4.4, water), 1.25 mg/kg, read-out: Tmax
  Tmax: 30 min
[2]; bovine, plasma, sc, 1.25 mg/kg, pH 4.6, FormM62.5 (L-tartaric acid, sodium hydroxide up to pH 4.6, water), 1.25 mg/kg, read-out: AUC
  AUC: 336 ng·h/mL
[2]; bovine, plasma, sc, 1.25 mg/kg, pH 4.6, FormM62.5 (L-tartaric acid, sodium hydroxide up to pH 4.6, water), 1.25 mg/kg, read-out: Cmax
  Cmax: 350 ng/mL
[2]; bovine, plasma, sc, 1.25 mg/kg, pH 4.6, FormM62.5 (L-tartaric acid, sodium hydroxide up to pH 4.6, water), 1.25 mg/kg, read-out: Tmax
  Tmax: 15 min
[2]; bovine, plasma, FormJ62.5 (DMSO, 2-pyrrolidone, ethyl lactate), SC, 1.25 mg/kg, read-out: AUC
  AUC: 99.6 ng·h/mL
[2]; bovine, plasma, FormJ62.5 (DMSO, 2-pyrrolidone, ethyl lactate), SC, 1.25 mg/kg, read-out: Cmax
  Cmax: 37.1 ng/mL
[2]; bovine, plasma, FormJ62.5 (DMSO, 2-pyrrolidone, ethyl lactate), SC, 1.25 mg/kg, read-out: Tmax
  Tmax: 110 min
